# Data published in US20070092577A1, “Dietary calcium for reducing the production of reactive oxygen species” (University of Tennessee Research Foundation, priority 2005, published 2007).
# How the values were obtained:
# [1] = tested on: [Ca^2+]i in cultured 3T3-L1 adipocytes; assay: Intracellular calcium in cultured adipocytes (fura-2); format: cell-based, murine; conditions: 4 hours
# Experimental: 3T3-L1 preadipocytes were incubated at a density of 8000 cells/cm^2 (10 cm^2 dish) and grown in Dulbecco's modified Eagle's medium (DMEM) containing 10% FBS and antibiotics (adipocyte medium) at 37° C. in 5% CO2 in air. Confluent preadipocytes were induced to differentiate with a standard differentiation medium consisting of DMEM-F 10 (1:1, vol/vol) medium supplemented with 1% FBS, 1 μM dexamethasone, IBMX (0.5 mM) and antibiotics (1% Penicillin-Streptomycin). Preadipocytes were maintained in this differentiation medium for 3 days and subsequently cultured in adipocyte medium. Cultures were re-fed every 2-3 days to allow 90% of cells to reach full differentiation before conducting chemical treatment. Chemicals were freshly diluted in adipocyte medium before treatment. Cells were washed with fresh adipocyte medium, re-fed with medium containing the different treatments, and incubated at 37° C. in 5% CO2 in air before analysis. Cell viability was measured via trypan blue exclusion. [Ca^2+]i in adipocytes was measured using a fura-2 dual-wavelength fluorescence imaging system. Cells were plated in 35-mm dishes […]). […] Cells were loaded with fura-2 acetoxymethyl ester (fura-2 AM) (10 μmol/L) in the same buffer for 2 h at 37° C. in a dark incubator with 5% CO2. To remove extracellular dye, cells were rinsed with HBSS three times and then post-incubated at room temperature for an additional 1 h for complete hydrolysis of cytoplasmic fura-2 AM. The dishes with dye-loaded cells were mounted on the stage of Nikon TMS-F fluorescence inverted microscope with a Cohu model 4915 charge-coupled device (CCD) camera. Fluorescent images were captured alternatively at excitation wavelengths of 340 and 380 nm with an emission wavelength of 520 nm. After establishment of a stable baseline, the responses to 1α, 25-(OH)2-D3 was determined. [Ca^2+]i was calculated using a ratio equation as described previously. Each analysis evaluated responses of 5 representative whole cells. Images were analyzed with […]2 version 4.62 imaging software (Intracellular Imaging, Cincinnati, Ohio). […]
# [2] = tested on: IL-15; assay: IL-15 expression in differentiated 3T3-L1 adipocytes; format: cell-based, mouse
# Experimental: 3T3-L1 pre-adipocytes were incubated at a density of 8000 cells/cm^2 (10 cm^2 dish) and grown in Dulbecco's modified Eagle's medium (DMEM) containing 10% FBS and antibiotics (adipocyte medium) at 37° C. in 5% CO2 in air. Confluent pre-adipocytes were induced to differentiate with a standard differentiation medium consisting of DMEM-F10 (1:1, vol/vol) medium supplemented with 1% fetal bovine serum (FBS), 1 μM dexamethasone, isobutylmethylxanthine (IBMX) (0.5 mM) and antibiotics (1% Penicillin-Streptomycin). Pre-adipocytes were maintained in this differentiation medium for 3 days and subsequently cultured in adipocyte medium. Cultures were re-fed every 2-3 days to allow 90% cells to reach fully differentiation before conducting chemical treatment. […] Cell viability was measured via trypan blue exclusion. Adipocyte and muscle 18s, TNFα, IL-6, IL-8, IL-15 and adiponectin were quantitatively measured using a smart cycler real-time PCR system (Cepheid, Sunnyvale, Calif.) with a TaqMan 1000 Core Reagent Kit (Applied Biosystems, Branchburg, N.J.). […] Reactions of quantitative RT-PCR for standards and unknown samples were also performed according to the instructions of Smart Cycler System (Cepheid, Sunnyvale, Calif.) and TaqMan Real Time PCR Core Kit (Applied Biosystems, Branchburg, N.J.). The mRNA quantitation for each sample was further normalized using the corresponding 18s quantitation.
# [3] = tested on: ROS production in cultured 3T3-L1 adipocytes; assay: ROS production in cultured adipocytes (H2-DCFDA); format: cell-based, murine; conditions: 48 hours
# Experimental: 3T3-L1 preadipocytes were incubated at a density of 8000 cells/cm^2 (10 cm^2 dish) and grown in Dulbecco's modified Eagle's medium (DMEM) containing 10% FBS and antibiotics (adipocyte medium) at 37° C. in 5% CO2 in air. Confluent preadipocytes were induced to differentiate with a standard differentiation medium consisting of DMEM-F 10 (1:1, vol/vol) medium supplemented with 1% FBS, 1 μM dexamethasone, IBMX (0.5 mM) and antibiotics (1% Penicillin-Streptomycin). Preadipocytes were maintained in this differentiation medium for 3 days and subsequently cultured in adipocyte medium. Cultures were re-fed every 2-3 days to allow 90% of cells to reach full differentiation before conducting chemical treatment. Chemicals were freshly diluted in adipocyte medium before treatment. Cells were washed with fresh adipocyte medium, re-fed with medium containing the different treatments, and incubated at 37° C. in 5% CO2 in air before analysis. Cell viability was measured via trypan blue exclusion. […] Cells were loaded with H2-DCFDA (2 μmol/L) 30 minute before the end of the incubation period (48 h). After washing twice with PBS, cells were scraped and disrupted by sonication on ice (20s). Fluorescence (emission 543 nm or 527 nm) and DNA content were then measured as described previously. The intensity of fluorescence was expressed as arbitary units per ng DNA.
smiles,measurement,setting,value
"OO [H2O2, hydrogen peroxide]",increase in [Ca^2+]i,"[1]; H2O2 100 nmol/L or glucose 30 mmol/L, p<0.001",5 fold
same,effect on IL-15 expression,"[2]; 100 nmol/L H2O2, 48 h",no direct effect
"C=C1/C(=C\C=C2/CCC[C@]3(C)[C@@H]([C@H](C)CCCC(C)(C)O)CC[C@@H]23)C[C@@H](O)C[C@@H]1O [calcitriol, 1, 25-Dihydroxyvitamin D]",effect on high glucose induced ROS production,"[3]; added to glucose 30 mmol/L, nifedipine 10 μmol/L",greater stimulation of ROS production than either glucose alone or glucose plus GDP
Cc1c(C)c2c(c(C)c1O)CC[C@@](C)(CCC[C@H](C)CCC[C@H](C)CCCC(C)C)O2 [α-tocopherol],effect on ROS production in all groups,[3]; α-tocopherol 1 μmol/L,inhibited
same,effect on H2O2 induced increase in [Ca^2+]i,[1]; α-tocopherol 1 μmol/L with H2O2 100 nmol/L,reversed
same,effect on glucose induced increase in [Ca^2+]i,[1]; α-tocopherol 1 μmol/L with glucose 30 mmol/L,partially blocked
same,increase of IL-15 as compared to H2O2-treated cells,"[2]; 1 μmol/L α±tocopherol added to 100 nmol/L H2O2, 48 h, P=0.043",2.2 fold
